PMC9841524, “Structure-Based Rational Design of Small α-Helical Peptides with Broad-Spectrum Activity against Multidrug-Resistant Pathogens” (Journal of Medicinal Chemistry, 2022)
Read-outs that look alike come from different tables or passages of the source. Where no end group is shown, it is not given here.

Legend:
[1] = system: P. aeruginosa (ATCC 27883); assay: MIC, standard microtiter dilution (CLSI); format: cell-based, Pseudomonas aeruginosa; settings: broth microdilution (CLSI), CAMHB, 37 °C, 24 h
Outline: (§1)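 In this CLSI-recommended assay, peptides were serially diluted twofold and combined with bacteria at 10^6 CFU/mL in cation-adjusted Mueller Hinton Broth.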

MRSA (ATCC BAA-1556) [2] = assay: Bactericidal kinetic assay; format: cell-based, methicillin-resistant S. aureus; settings: after 4 h of incubation
Method: The time course of bacterial killing was studied by the exposure of overnight grown cultures of MRSA (ATCC BAA-1556) and E. coli (ATCC BAA-2452) to 8a and 8b at the MIC and 4× the MIC in Muller Hinton media. Bacterial cells (2 × 10^6 CFU/mL) were treated with peptides and standard antibiotics and incubated at 37 °C. Aliquots were withdrawn at a 30 min time interval for 4 h and plated on the agar plate to determine the number of viable bacterial colonies. Data were obtained from two independent experiments performed in triplicate.

MRSA (ATCC BAA-1556) [3] = assay: Flow cytometric analysis of PI-stained cells; format: cell-based, methicillin-resistant S. aureus; settings: 1 h treatment, 10^7 CFU/mL, flow cytometry
Method: The flow cytometric analysis was performed by using MRSA (ATCC BAA-1556) and E. coli (ATCC BAA-2452) cultures grown to the mid log phase in Mueller Hinton broth (HIMEDIA). Before treatment, bacterial cells were washed thrice with buffer (10 mM Tris, pH 7.4) and resuspended in the same buffer to obtain 10^7 CFU/mL bacterial suspensions. Test peptides (8a and 8b) and the standard antibiotics (daptomycin and polymyxin B) at MIC and 4 × MIC were incubated with bacterial suspension for 1 h. Following the treatment with test peptides, the cells were pelleted by centrifugation at 3000g for 15 min in a microcentrifuge. The supernatant was decanted, and the cells were washed with PBS several times and then incubated with PI ([…]) in the dark for 15 min at 37 °C. FACS analysis of the stained bacterial cells was performed using a FACscan flow cytometer (BD Accuri C6, BD Biosciences, California, USA), and data were analyzed by using Cell Quest software.

[4] = system: P. aeruginosa (ATCC 10145)
Outline: as §1

[5] = system: Bacillus subtilis (ATCC 6633); settings: ATCC 6633, 24 h
Outline: as §1

[6] = system: Klebsiella pneumonia (ATCC 13883)
Outline: as §1

[7] = system: S. pneumoniae (ATCC 700677); settings: Gram-positive, multi-drug resistant (penicillin, tetracycline, erythromycin); CAMHB + 2.5% lysed horse blood, 37 °C, 24 h; highest MIC of three independent experiments in triplicate
Outline: as §1

[8] = system: K. pneumonia (ATCC BAA-2470); settings: Gram-negative, carbapenem-resistant; CLSI microdilution, CAMHB, 37 °C, 24 h; highest MIC of three independent experiments in triplicate
Outline: as §1

MRSA (ATCC BAA-1556) [9] = settings: for MIC, MRSA (ATCC BAA-1556), Control: MH media without salt ions or serum; for MIC, MRSA (ATCC BAA-1556), Control / MIC, MRSA (ATCC BAA-1556), MgCl2 / MIC, MRSA (ATCC BAA-1556), CaCl2 / MIC, MRSA (ATCC BAA-1556), KCl / MIC, MRSA (ATCC BAA-1556), NH4Cl / MIC, MRSA (ATCC BAA-1556), NaCl / MIC, MRSA (ATCC BAA-1556), FBS (25%): three independent experiments in triplicate; for MIC, MRSA (ATCC BAA-1556): broth microdilution (CLSI), CAMHB, 37 °C, 24 h; for MIC, MRSA (ATCC BAA-1556), MgCl2: media with 1 mM MgCl2; for MIC, MRSA (ATCC BAA-1556), CaCl2: media with 2 mM CaCl2; for MIC, MRSA (ATCC BAA-1556), KCl: media with 4.5 mM KCl; for MIC, MRSA (ATCC BAA-1556), NH4Cl: media with 6 mM NH4Cl; for MIC, MRSA (ATCC BAA-1556), NaCl: media with 150 mM NaCl; for MIC, MRSA (ATCC BAA-1556), FBS (25%): media with 25% fetal bovine serum
Outline: as §1

[10] = Calcein dye leakage assay; settings: after 100 min, 10% Triton X-100 = 100%, triplicate; for calcein dye leakage, 5 μg/mL: bacterial membrane mimicking LUVs; for calcein dye leakage, 50 μg/mL: mammalian membrane mimicking LUVs
Method: The calcein dye leakage assay was conducted using the large unilamellar vesicles (LUVs) composed of 1,2-dioleoyl-sn-glycero-3-phosphocholine (DOPC) and 1,2-dioleoyl-sn-glycero-3-phosphoglycerol (DOPG) to mimic the bacterial membrane (DOPC/DOPG, 7:3, w/w) or mammalian membrane (DOPC/cholesterol, 10:1, w/w), as we described previously.[18] At various concentrations (5, 10, 20, 30, and 50 μg/mL) test peptides 8a and 8b (50 μL) mixed with liposome suspension (50 μL), and fluorescence intensity was read every 10 min for 100 min at an excitation wavelength of 490 nm and an emission wavelength of 520 nm on a SpectraMax M5 multi-mode microplate reader. Considering calcein release from liposomes treated with a 10% solution (w/v) of Triton X-100 as 100%, the apparent percentage of dye leakage was calculated using the following formula [drawing 2] where F is the intensity measured at a given peptide concentration, F0 is the background intensity of the liposome sample, and Ft is the intensity after lysis induced by Triton X-100.

[11] = 10^6 CFU/mL, highest MIC of three independent experiments in triplicate
[12] = Gram-negative, CLSI microdilution, CAMHB, 37 °C, 24 h, highest MIC of three independent experiments in triplicate

For KWLKKWLKWWKK-NH2 [8b], the “MIC, P. aeruginosa (ATCC 27883)” value [1, 11] was 6.2 µg/mL, the “MIC, P. aeruginosa (ATCC 27883)” value ([1]; value in parentheses (μM)) was 3.53 µM and the “killing of MRSA cells at 4 × MIC” value (MRSA (ATCC BAA-1556) [2]) was “completely eliminated”. The “PI fluorescence of MRSA cells at MIC” value (MRSA (ATCC BAA-1556) [3]) was 42.1%, the “MIC, P. aeruginosa (ATCC 10145)” value ([4]; ATCC 10145, 24 h) was 6.2 µg/mL and the “MIC, Bacillus subtilis (ATCC 6633)” value [5] was 3.1 µg/mL. For the same substance, the “MIC, Klebsiella pneumonia (ATCC 13883)” value [6, 12] was 12.5 µg/mL, the “MIC, S. pneumoniae (ATCC 700677)” value [7] was 12.5 µg/mL and the “MIC, K. pneumonia (ATCC BAA-2470)” value [8] was 12.5 µg/mL. The “MIC, MRSA (ATCC BAA-1556), Control” value (MRSA (ATCC BAA-1556) [9]) was 3.1 µg/mL, the “MIC, MRSA (ATCC BAA-1556)” value (MRSA (ATCC BAA-1556) [9]; [11]) was 3.1 µg/mL and the “MIC, MRSA (ATCC BAA-1556), MgCl2” value (MRSA (ATCC BAA-1556) [9]) was 6.2 µg/mL. The “MIC, MRSA (ATCC BAA-1556), CaCl2” value (MRSA (ATCC BAA-1556) [9]) was 6.2 µg/mL, the “MIC, MRSA (ATCC BAA-1556), KCl” value (MRSA (ATCC BAA-1556) [9]) was 6.2 µg/mL and the “MIC, MRSA (ATCC BAA-1556), NH4Cl” value (MRSA (ATCC BAA-1556) [9]) was 6.2 µg/mL. The “MIC, MRSA (ATCC BAA-1556), NaCl” value (MRSA (ATCC BAA-1556) [9]) was 12.5 µg/mL, the “MIC, MRSA (ATCC BAA-1556), FBS (25%)” value (MRSA (ATCC BAA-1556) [9]) was 12.5 µg/mL and the “MIC, MRSA (ATCC BAA-1556)” value (MRSA (ATCC BAA-1556) [9]; value in parentheses (μM)) was 1.76 µM. The “calcein dye leakage, 5 μg/mL” value [10] was “approximately 30%” and the “calcein dye leakage, 50 μg/mL” value [10] was 10%.
For RWIRRWIRWWRR-NH2 [7a], the “MIC, P. aeruginosa (ATCC 27883)” value [1, 11] was 6.2 µg/mL, the “MIC, P. aeruginosa (ATCC 27883)” value ([1]; value in parentheses (μM)) was 3.22 µM and the “MIC, P. aeruginosa (ATCC 10145)” value [4, 12] was 12.5 µg/mL. For the same substance, the “MIC, Bacillus subtilis (ATCC 6633)” value [5] was 6.2 µg/mL, the “MIC, Klebsiella pneumonia (ATCC 13883)” value ([6]; ATCC 13883, 24 h) was 25 µg/mL and the “MIC, S. pneumoniae (ATCC 700677)” value [7] was 25 µg/mL. For the same substance, the “MIC, K. pneumonia (ATCC BAA-2470)” value [8] was 12.5 µg/mL, the “MIC, MRSA (ATCC BAA-1556), Control” value (MRSA (ATCC BAA-1556) [9]) was 6.2 µg/mL and the “MIC, MRSA (ATCC BAA-1556)” value (MRSA (ATCC BAA-1556) [9]; [11]) was 6.2 µg/mL. The “MIC, MRSA (ATCC BAA-1556), MgCl2” value (MRSA (ATCC BAA-1556) [9]) was 6.2 µg/mL, the “MIC, MRSA (ATCC BAA-1556), CaCl2” value (MRSA (ATCC BAA-1556) [9]) was 6.2 µg/mL and the “MIC, MRSA (ATCC BAA-1556), KCl” value (MRSA (ATCC BAA-1556) [9]) was 12.5 µg/mL. The “MIC, MRSA (ATCC BAA-1556), NH4Cl” value (MRSA (ATCC BAA-1556) [9]) was 6.2 µg/mL, the “MIC, MRSA (ATCC BAA-1556), NaCl” value (MRSA (ATCC BAA-1556) [9]) was 12.5 µg/mL and the “MIC, MRSA (ATCC BAA-1556), FBS (25%)” value (MRSA (ATCC BAA-1556) [9]) was 25 µg/mL. For the same substance, the “MIC, MRSA (ATCC BAA-1556)” value (MRSA (ATCC BAA-1556) [9]; value in parentheses (μM)) was 3.22 µM.
With RWLRRWLRWWRR-NH2 [8a] the “MIC, P. aeruginosa (ATCC 27883)” value [1, 11] was 12.5 µg/mL, the “MIC, P. aeruginosa (ATCC 27883)” value ([1]; value in parentheses (μM)) was 6.49 µM and the “killing of MRSA cells at 4 × MIC” value (MRSA (ATCC BAA-1556) [2]) was “completely eliminated”. The “PI fluorescence of MRSA cells at MIC” value (MRSA (ATCC BAA-1556) [3]) was 34.2%, the “MIC, P. aeruginosa (ATCC 10145)” value ([4]; ATCC 10145, 24 h) was 6.2 µg/mL and the “MIC, Bacillus subtilis (ATCC 6633)” value [5] was 3.1 µg/mL. For the same substance, the “MIC, Klebsiella pneumonia (ATCC 13883)” value [6, 12] was 12.5 µg/mL, the “MIC, S. pneumoniae (ATCC 700677)” value [7] was 12.5 µg/mL and the “MIC, K. pneumonia (ATCC BAA-2470)” value [8] was 12.5 µg/mL. The “MIC, MRSA (ATCC BAA-1556), Control” value (MRSA (ATCC BAA-1556) [9]) was 6.2 µg/mL, the “MIC, MRSA (ATCC BAA-1556)” value (MRSA (ATCC BAA-1556) [9]; [11]) was 6.2 µg/mL and the “MIC, MRSA (ATCC BAA-1556), MgCl2” value (MRSA (ATCC BAA-1556) [9]) was 6.2 µg/mL. For the same substance, the “MIC, MRSA (ATCC BAA-1556), CaCl2” value (MRSA (ATCC BAA-1556) [9]) was 6.2 µg/mL, the “MIC, MRSA (ATCC BAA-1556), KCl” value (MRSA (ATCC BAA-1556) [9]) was 12.5 µg/mL and the “MIC, MRSA (ATCC BAA-1556), NH4Cl” value (MRSA (ATCC BAA-1556) [9]) was 6.2 µg/mL. For the same substance, the “MIC, MRSA (ATCC BAA-1556), NaCl” value (MRSA (ATCC BAA-1556) [9]) was 12.5 µg/mL, the “MIC, MRSA (ATCC BAA-1556), FBS (25%)” value (MRSA (ATCC BAA-1556) [9]) was 50 µg/mL and the “MIC, MRSA (ATCC BAA-1556)” value (MRSA (ATCC BAA-1556) [9]; value in parentheses (μM)) was 3.22 µM. The “calcein dye leakage, 5 μg/mL” value [10] was “approximately 30%” and the “calcein dye leakage, 50 μg/mL” value [10] was 19%.
